Format in all cases: cell-based
Experiment [1] concerns the target T1, gastrin receptor (Mus musculus, UniProt P56481).
T1 construct: assayed for gastrin activity using the mouse stomach assay; from tissue; host or cells: isolated mouse stomach
T1 sequence (P56481 1-453): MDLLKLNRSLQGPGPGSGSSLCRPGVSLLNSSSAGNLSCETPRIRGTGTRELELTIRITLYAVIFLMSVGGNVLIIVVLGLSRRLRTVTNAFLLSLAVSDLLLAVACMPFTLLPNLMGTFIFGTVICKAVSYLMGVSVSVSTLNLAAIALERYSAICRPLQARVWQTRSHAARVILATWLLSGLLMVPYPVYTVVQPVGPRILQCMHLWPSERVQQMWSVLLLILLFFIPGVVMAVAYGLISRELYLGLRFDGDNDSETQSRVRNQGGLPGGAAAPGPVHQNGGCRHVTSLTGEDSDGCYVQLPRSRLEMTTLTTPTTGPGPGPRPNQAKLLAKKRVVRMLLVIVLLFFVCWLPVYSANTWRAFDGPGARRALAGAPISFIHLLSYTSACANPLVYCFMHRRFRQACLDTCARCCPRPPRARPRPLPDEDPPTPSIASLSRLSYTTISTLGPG
Briefly: mouse stomach assay for gastrin activity (isolated stomach, acid secretion). The settings on record: for Acid seretion at 10^-5 M test compound, relative to pentagastrin (%): mouse stomach, NS = not significant. How it is done: The compounds were assayed for gastrin activity using the mouse stomach assay as described by Black, J. W. and Shankley, N. P., Br. J. Pharmacol., 86, 571-579, (1985), and also in the guinea-pig fundus assay, as follows: […]

Experiment [2] has as its target T2, cholecystokinin receptors (Cavia porcellus, UniProt Q63931).
T2 construct: Isolated, strip preparations were prepared from gall-bladders removed from male Dunkin-Hartley guinea-pigs; from tissue; host or cells: guinea-pig gall-bladder strips
T2 sequence (Q63931 1-430): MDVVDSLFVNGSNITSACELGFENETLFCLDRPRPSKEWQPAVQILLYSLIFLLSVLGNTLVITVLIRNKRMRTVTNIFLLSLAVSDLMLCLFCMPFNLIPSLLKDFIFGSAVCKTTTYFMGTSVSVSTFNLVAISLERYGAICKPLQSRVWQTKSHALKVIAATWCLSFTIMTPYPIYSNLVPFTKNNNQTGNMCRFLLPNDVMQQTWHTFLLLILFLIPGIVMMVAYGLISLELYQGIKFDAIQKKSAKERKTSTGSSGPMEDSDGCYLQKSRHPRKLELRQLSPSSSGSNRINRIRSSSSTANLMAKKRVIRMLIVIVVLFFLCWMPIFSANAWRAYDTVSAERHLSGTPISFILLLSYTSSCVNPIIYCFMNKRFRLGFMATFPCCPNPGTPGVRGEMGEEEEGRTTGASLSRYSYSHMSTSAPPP
Description: CCK-antagonist activity in isolated guinea-pig gall-bladder strip preparations. The note with it: guinea-pig gall-bladder strips; CCK-8 as agonist; test compound incubated for 60 minutes; standard errors less than 5%. The method, boiled down:
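Male Dunkin-Hartley guinea-pig gall-bladder strips under 1 g isometric tension in Krebs (0.5 mM Ca²⁺), 37° C, 95% O2/5% CO2, stabilised 90 min. Cumulative CCK-8 concentration-effect curves without and with test compound (60 min preincubation); antagonism expressed as […] by modified competitive analysis.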

The target in experiment [3] is T3, gastrin receptor (Cavia porcellus, UniProt H0VZC5).
T3 construct: Strips of muscle (approximately 2.5 cm by 1 cm) are removed from the proximal area of the stomach; from tissue; host or cells: guinea-pig proximal stomach (fundus) muscle strips
T3 sequence (H0VZC5 1-426): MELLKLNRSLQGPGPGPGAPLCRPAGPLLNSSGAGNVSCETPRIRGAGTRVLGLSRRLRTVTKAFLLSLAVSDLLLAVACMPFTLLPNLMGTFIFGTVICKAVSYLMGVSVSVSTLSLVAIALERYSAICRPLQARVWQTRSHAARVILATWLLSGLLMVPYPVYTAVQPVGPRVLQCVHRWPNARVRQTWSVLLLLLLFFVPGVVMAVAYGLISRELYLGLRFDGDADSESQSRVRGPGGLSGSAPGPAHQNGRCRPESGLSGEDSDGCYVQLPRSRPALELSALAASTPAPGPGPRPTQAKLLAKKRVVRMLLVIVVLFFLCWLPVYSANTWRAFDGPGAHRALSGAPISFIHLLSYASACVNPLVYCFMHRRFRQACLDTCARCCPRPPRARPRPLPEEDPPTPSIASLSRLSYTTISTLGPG
Briefly: guinea-pig fundus assay for gastrin activity (stomach muscle strips). The note with it: 10^-8 M devazepide present, 60 minute equilibration, agonist e.g. pentagastrin, standard errors less than 5%. An outline of the steps: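 Proximal stomach muscle strips from male Dunkin-Hartley guinea-pigs were mounted on isotonic transducers at 0.35 g in gassed Krebs containing 10^-8 M devazepide to block CCK receptors, with 10 mM KCl added. Test compounds were equilibrated 60 min before cumulative pentagastrin dose-response curves were run.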

[4] abbreviates: isolated mouse stomach assay, gastrin antagonism, standard errors less than 5%.

Non-standard residues stand in square brackets, D forms with d. Residues, ends and D or L forms follow the SMILES beside them. *: point of attachment. Trp(5-F) = N[C@@H](Cc1c[nH]c2ccc(F)cc12)C(=O)O; 2Nal = N[C@@H](Cc1ccc2ccccc2c1)C(=O)O; Boc = CC(C)(C)OC(=O)*

Turning to `CC(C)(C)OC(=O)N[C@@H](Cc1c[nH]c2ccc(F)cc12)C(=O)N[C@@H](Cc1ccc2ccccc2c1)C(=O)N[C@@H](CC(=O)O)C(=O)N[C@@H](Cc1ccccc1)C(N)=O` [Example 18, N-t-Butyloxycarbonyl-5-fluoro-L-tryptophyl-L-3-(2-naphthyl)alanyl-L-aspartyl-L-phenylalaninamide] (Boc-[Trp(5-F)][2Nal]DF-NH2), the Kb is 1580 nM at gastrin receptor [1] (isolated mouse stomach assay, gastrin antagonism, standard errors less than 5%, read-out: pKB mouse stomach (converted)); 631 nM in experiment [2]; 1260 nM at gastrin receptor [3]. The “Acid seretion at 10^-5 M test compound, relative to pentagastrin (%)” value (from here on “Acid seretion … relative to pentagastrin (%)”) on gastrin receptor [1] worked out at 54%.

`COc1ccccc1CCNC(=O)[C@H](CC(=O)O)NC(=O)[C@H](Cc1ccc2ccccc2c1)NC(=O)[C@H](Cc1c[nH]c2ccccc12)NC(=O)OC(C)(C)C` [Example 40, N-t-Butyloxycarbonyl-L-tryptophyl-L-3-(2-naphthyl)alanyl-L-aspartyl-2-methoxyphenethylamide] yielded a pKB mouse stomach at gastrin receptor [1] (setting [4]) of 5.2. Also, the “Acid seretion … relative to pentagastrin (%)” value on gastrin receptor [1] is reported as 22%. In addition, the results for the pKB (in experiment [2]; on gastrin receptor [3]) were 7.1 and 5.8, respectively.

`CC(C)(C)OC(=O)N[C@@H](Cc1c[nH]c2ccccc12)C(=O)N[C@@H](Cc1ccc2ccccc2c1)C(=O)N[C@@H](CC(=O)O)C(=O)NCCc1ccc(Cl)c(Cl)c1` [Example 42, N-t-Butyloxycarbonyl-L-tryptophyl-L-3-(2-naphthyl)alanyl-L-aspartyl-3,4-dichlorophenethylamide] registered a pKB mouse stomach at gastrin receptor [1] (setting [4]) of 5.2. For the same molecule, the “Acid seretion … relative to pentagastrin (%)” value at gastrin receptor [1] is recorded as 30%. The pKB in experiment [2] came to 6.0; on gastrin receptor [3], 5.3.

Molecule `CC(C)(C)OC(=O)N[C@@H](Cc1c[nH]c2ccccc12)C(=O)N[C@@H](Cc1ccc2ccccc2c1)C(=O)N[C@@H](CC(=O)O)C(=O)NCCc1ccc(N)cc1` [Example 46, N-t-Butyloxycarbonyl-L-tryptophyl-L-3-(2-naphthyl)alanyl-L-aspartyl-4-aminophenethylamide] had a pKB mouse stomach at gastrin receptor [1] (setting [4]) of 5.6. For the same molecule, the values for the pKB (in experiment [2]; at gastrin receptor [3]) were 6.5 and 6.0, respectively.

`CC(C)(C)OC(=O)N[C@@H](Cc1c[nH]c2ccccc12)C(=O)N[C@@H](Cc1ccc2ccccc2c1)C(=O)N[C@@H](CC(=O)O)C(=O)NCCc1ccc(F)cc1` [Example 47, N-t-Butyloxycarbonyl-L-tryptophyl-L-3-(2-naphthyl)alanyl-L-aspartyl-4-fluorophenethylamide] yielded a pKB mouse stomach on gastrin receptor [1] (setting [4]) of 5.5. Besides, the “Acid seretion … relative to pentagastrin (%)” value at gastrin receptor [1] came to 25%. Also, the figures for the negative-log KB (pKB) (in experiment [2]; at gastrin receptor [3]) were 6.7 and 5.8, respectively.

With `CC(C)(C)OC(=O)N[C@@H](Cc1c[nH]c2ccccc12)C(=O)N[C@@H](Cc1ccc2ccccc2c1)C(=O)N[C@H](CC(=O)O)C(=O)NCCc1ccc(F)cc1` [Example 52, N-t-Butyloxycarbonyl-L-tryptophyl-L-3-(2-naphthyl)alanyl-D-aspartyl-4-fluorophenethylamide], the pKB mouse stomach at gastrin receptor [1] (setting [4]) amounted to 5.6. Also, the “Acid seretion … relative to pentagastrin (%)” value on gastrin receptor [1] is given as 25%. Further, the pKB is 6.4 in experiment [2] and 5.9 at gastrin receptor [3].

In turn, `CC(C)(C)OC(=O)N[C@@H](Cc1c[nH]c2ccccc12)C(=O)N[C@@H](Cc1ccc2ccccc2c1)C(=O)N[C@@H](CC(=O)O)C(=O)NCCc1ccccc1F` [Example 54, N-t-Butyloxycarbonyl-L-tryptophyl-L-3-(2-naphthyl)alanyl-L-aspartyl-2-fluorophenethylamide] displayed a pKB mouse stomach on gastrin receptor [1] (setting [4]) of 5.4. Besides, at gastrin receptor [1], the “Acid seretion … relative to pentagastrin (%)” value is given as 25%. The values for the pKB (in experiment [2]; on gastrin receptor [3]) were 6.4 and 6.2, respectively.

Regarding `COc1cccc(CCNC(=O)[C@H](CC(=O)O)NC(=O)[C@H](Cc2ccc3ccccc3c2)NC(=O)[C@H](Cc2c[nH]c3ccccc23)NC(=O)OC(C)(C)C)c1` [Example 56, N-t-Butyloxycarbonyl-L-tryptophyl-L-3-(2-naphthyl)alanyl-L-aspartyl-3-methoxyphenethylamide], at gastrin receptor [1] (setting [4]), the pKB mouse stomach is on record as 5.6. The pKB is 7.2 in experiment [2] and 5.5 on gastrin receptor [3].

On gastrin receptor [1] (setting [4]), `CC(C)(C)OC(=O)N[C@@H](Cc1c[nH]c2ccccc12)C(=O)N[C@@H](Cc1ccc2ccccc2c1)C(=O)N[C@@H](CC(=O)O)C(=O)NCCc1cccc(F)c1` [Example 65, N-t-Butyloxycarbonyl-L-tryptophyl-L-3-(2-naphthyl)alanyl-L-aspartyl-3-fluorophenethylamide] registered a pKB mouse stomach of 5.3. For the same molecule, the pKB in experiment [2] is recorded as 6.7; at gastrin receptor [3], 6.1.

At gastrin receptor [1] (setting [4]), “N-t-Butyloxycarbonyl-L-tryptophyl-L-3-(2-naphthyl)alanyl-L-aspartylphenethylamide [Example 2]” came in with a pKB mouse stomach of 5.6. At gastrin receptor [1], the “Acid seretion … relative to pentagastrin (%)” value is listed as 20%. The pKB is 6.9 in experiment [2] and 5.9 at gastrin receptor [3].

The values are drawn from patent US5486597A, “Tetrapeptide derivatives and analogues” (James Black Foundation Limited, priority 1990, dated 1996).
